The target in this test is T1, Human URAT1 (Homo sapiens, UniProt Q96S37).
T1 construct: The full-length hURAT1 cDNA was obtained from the vector pCMV6-XL5 and subcloned into the expression vector pCMV6-Neo
T1 sequence (Q96S37 1-553): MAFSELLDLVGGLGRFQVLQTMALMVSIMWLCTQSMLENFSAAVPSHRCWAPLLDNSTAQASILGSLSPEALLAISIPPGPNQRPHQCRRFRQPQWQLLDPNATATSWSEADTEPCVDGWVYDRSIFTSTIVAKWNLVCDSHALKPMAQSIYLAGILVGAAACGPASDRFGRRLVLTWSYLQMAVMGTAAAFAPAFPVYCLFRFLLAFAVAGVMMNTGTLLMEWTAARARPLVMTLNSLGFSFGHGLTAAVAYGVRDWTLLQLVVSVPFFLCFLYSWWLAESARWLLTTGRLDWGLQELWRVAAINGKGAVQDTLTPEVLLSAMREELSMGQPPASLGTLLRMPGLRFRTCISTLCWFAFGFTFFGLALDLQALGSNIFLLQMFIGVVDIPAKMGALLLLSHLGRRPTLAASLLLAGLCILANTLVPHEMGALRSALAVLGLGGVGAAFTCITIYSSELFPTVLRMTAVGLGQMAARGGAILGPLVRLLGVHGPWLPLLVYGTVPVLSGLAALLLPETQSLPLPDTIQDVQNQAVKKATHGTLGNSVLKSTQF
As to the kind of experiment: URAT1 inhibition assay: [8-14C] urate uptake in hURAT1-expressing HEK293 cells. Type of test: cell-based. As to conditions: for inhibition at 10 µM: Human URAT1-Expressing HEK293 cells, 50 μM [8-14C] urate, 5 min, read-out: % Inhibition of uric acid uptake. The procedure:
An in vitro URAT1 assay is useful for identifying compounds with potential activity in lowering serum uric acid. A suitable assay involves transfection of cells (e.g. human embryonic kidney cells; “HEK”) with a vector encoding human URAT1, followed by determination of the ability of transfected cells to take up radiolabeled uric acid. The activity of compounds as URAT1 inhibitors is evaluated by their ability to block uric acid uptake by transfected cells.
Plasmid vector pCMV6-XL5 containing hURAT1 cDNA (Cat. No. SC125624) and the expression vector pCMV6-Neo (Cat. No. pCMVNEO) were obtained from OriGene Technologies, Inc. The full-length hURAT1 cDNA was obtained from the vector pCMV6-XL5 and subcloned into the expression vector pCMV6-Neo to create the hURAT1 expression plasmid pCMV6-hURAT1. The sequences were verified by automatic DNA sequencing.
Human embryonic kidney 293 (HEK) cells (ATTCC, Cat No. CRL-1573) were cultured in EMEM supplemented with 10% FBS and 2 mM L-glutamine and incubated at 37° C. and 5% CO2. For transfection experiments, cells were plated on 60 mm dishes in 1 ml media per dish. After an 18-24 hour incubation, cells were transfected with plasmid pCMV6-hURAT1 or the expression vector pCMV6-Neo, using the Lipofectin trasfection agent following the manufacturer's instructions (Invitrogen, Cat. No. 18292). After transfection cells were grown in EMEM media for 72 hours and then by adding 1 mg/ml Geneticin (GIBCO, Cat. No 10131) stable transfectants were selected. […]
hURAT1-HEK cells and mock-HEK cells were plated in poly-D-Lysine Cell culture 24 well plates (Becton Dickinson, Cat. No. 354414) at a concentration of 3×10^5 in EMEM medium and incubated overnight. […] The cell lysates were transferred into the scintillation vials containing 1 ml of scintillation fluid (Opti Phase SuperMIX, PerkinElmer, Cat No. 1200-439) and the radioactivity was counted in the Microbeta counter (1450, Wallac Jet, PerkinElmer). […] The radioactivity values obtained for the wells that contained DMSO were taken as 100% uptake of the cells. […]

As usually defined, the inhibition is the relative decrease from the control value, in per cent. As a reminder, the IC50 is the concentration at which inhibition is half-maximal. High values mean weaker potency, low ones greater potency. With `Cc1ccc(C(=O)C(=O)O)cc1OCc1c(C)cccc1C` [Cpd. FF, 2-(3-(2,6-dimethylbenzyloxy)-4-methylphenyl)-2-oxoacetic acid], the inhibition at 10 µM stood at 87.4%. The compound further had a half-inhibitory concentration (IC50) (uric acid uptake in hURAT1-HEK cells) of 1280 nM.

For `COc1ccc(C(=O)C(=O)O)cc1OCc1c(C)cccc1C` [Cpd. FG, 2-(3-(2,6-dimethylbenzyloxy)-4-methoxyphenyl)-2-oxoacetic acid], the inhibition at 10 µM is 67.1%.

The record behind these values is patent US20140142185A1, “3-Benzyloxyphenyloxoacetic Acid Compounds for Reducing Uric Acid” (priority 2011, published 2014).
